Data reported in PubChem BioAssay AID1919001 (Molecular Pharmacology Branch, DTP, NCI, 2023).

Test system: 699152-130-R-J1-PDC complex spheroid growth
Assay: Anticancer human tumor 699152-130-R-J1-PDC patient-derived pancreatic carcinoma cell line growth inhibition [AhR]
Conditions: for IC50: curve of first compound; for viability, T/C: stronger effect = lower value
Summary of the method: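 Complex tumor spheroids co-cultured with HUVEC and human MSC stroma; AhR antagonists tested in combination with standard-of-care and investigational agents. Top concentration at or near clinical Cmax (else 10 microM), half-log dilutions; growth expressed as percent test/control.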

[1] = second compound 0.1 µM, first compound 0.000949 µM
[2] = second compound 0.1 µM, first compound 0.003 µM
[3] = second compound 0.1 µM, first compound 0.00949 µM
[4] = second compound 0.1 µM, first compound 0.03 µM
[5] = second compound 0.1 µM, first compound 0.0949 µM
[6] = second compound 0.1 µM, first compound 0.3 µM
[7] = second compound 0.316 µM, first compound 0.000949 µM
[8] = second compound 0.316 µM, first compound 0.003 µM
[9] = second compound 0.316 µM, first compound 0.00949 µM
[10] = second compound 0.316 µM, first compound 0.03 µM
[11] = second compound 0.316 µM, first compound 0.0949 µM
[12] = second compound 0.316 µM, first compound 0.3 µM
[13] = second compound 1 µM, first compound 0.000949 µM
[14] = second compound 1 µM, first compound 0.003 µM
[15] = second compound 1 µM, first compound 0.00949 µM
[16] = second compound 1 µM, first compound 0.03 µM
[17] = second compound 1 µM, first compound 0.0949 µM
[18] = second compound 1 µM, first compound 0.3 µM
[19] = second compound 3.16 µM, first compound 0.000949 µM
[20] = second compound 3.16 µM, first compound 0.003 µM
[21] = second compound 3.16 µM, first compound 0.00949 µM
[22] = second compound 3.16 µM, first compound 0.03 µM
[23] = second compound 3.16 µM, first compound 0.0949 µM
[24] = second compound 3.16 µM, first compound 0.3 µM
[25] = second compound 10 µM, first compound 0.000949 µM
[26] = second compound 10 µM, first compound 0.003 µM
[27] = second compound 10 µM, first compound 0.00949 µM
[28] = second compound 10 µM, first compound 0.03 µM
[29] = second compound 10 µM, first compound 0.0949 µM
[30] = second compound 10 µM, first compound 0.3 µM
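Further: compound exposure lasted 7 days after spheroids had grown for 3 days.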

Work on `CC(C)CC(NC(=O)C(Cc1ccccc1)NC(=O)c1cnccn1)B(O)O` (stereo not given) + Cc1cncc(-c2nc(NCCc3c[nH]c4ccccc34)c3ncn(C(C)C)c3n2)c1 yielded an IC50 (second compound 0.1 µM) of 15 nM, an IC50 (second compound 0.316 µM) of 16.3 nM and an IC50 (second compound 1 µM) of 17 nM. It also gave an IC50 (second compound 3.16 µM) of 15.7 nM, an IC50 (second compound 10 µM) of under 0.949 nM and a viability, T/C [1] of 107%. The viability, T/C [2] was 104%, the viability, T/C [3] was 82.4% and the viability, T/C [4] was 1.43%. For the same molecule, the viability, T/C [5] was 2.12%, the viability, T/C [6] was 0.56% and the viability, T/C [7] was 99.4%. The viability, T/C [8] was 112%, the viability, T/C [9] was 93.8% and the viability, T/C [10] was 0.83%. For the same molecule, the viability, T/C [11] was 0.54%, the viability, T/C [12] was 0.39% and the viability, T/C [13] was 119%. It also gave a viability, T/C [14] of 111%, a viability, T/C [15] of 100% and a viability, T/C [16] of 0.8%. The viability, T/C [17] was 0.31%, the viability, T/C [18] was 0.34% and the viability, T/C [19] was 80.3%. For the same molecule, the viability, T/C [20] was 92.8%, the viability, T/C [21] was 91.3% and the viability, T/C [22] was 0.56%. It also gave a viability, T/C [23] of 0.26%, a viability, T/C [24] of 0.31% and a viability, T/C [25] of 10.4%. For the same molecule, the viability, T/C [26] was 12.2%, the viability, T/C [27] was 5.17% and the viability, T/C [28] was 0.33%. For the same molecule, the viability, T/C [29] was 0.3% and the viability, T/C [30] was 0.39%.

`CCc1c2c(nc3ccc(O)cc13)-c1cc3c(c(=O)n1C2)COC(=O)[C@]3(O)CC` + Cc1cncc(-c2nc(NCCc3c[nH]c4ccccc34)c3ncn(C(C)C)c3n2)c1 showed an IC50 (second compound 0.1 µM) of 38.9 nM, an IC50 (second compound 0.316 µM) of 33.3 nM and an IC50 (second compound 1 µM) of 69.6 nM. It also gave an IC50 (second compound 3.16 µM) of 12.3 nM, an IC50 (second compound 10 µM) of under 0.949 nM and a viability, T/C [1] of 96.7%. For the same molecule, the viability, T/C [2] was 91.2%, the viability, T/C [3] was 60.3% and the viability, T/C [4] was 56.5%. For the same molecule, the viability, T/C [5] was 41%, the viability, T/C [6] was 29% and the viability, T/C [7] was 92.4%. It also gave a viability, T/C [8] of 84.3%, a viability, T/C [9] of 61.3% and a viability, T/C [10] of 54.4%. It also gave a viability, T/C [11] of 37.6%, a viability, T/C [12] of 28.7% and a viability, T/C [13] of 102%. It also gave a viability, T/C [14] of 94.2%, a viability, T/C [15] of 70% and a viability, T/C [16] of 58.8%. It also gave a viability, T/C [17] of 50.9%, a viability, T/C [18] of 30.2% and a viability, T/C [19] of 74.8%. The viability, T/C [20] was 66%, the viability, T/C [21] was 49% and the viability, T/C [22] was 43.3%. The viability, T/C [23] was 32.2%, the viability, T/C [24] was 23.2% and the viability, T/C [25] was 10.7%. For the same molecule, the viability, T/C [26] was 11.6%, the viability, T/C [27] was 12.5% and the viability, T/C [28] was 11.7%. It also gave a viability, T/C [29] of 9.62% and a viability, T/C [30] of 11%.

With `COc1cc(Nc2ncc3c(n2)-c2ccc(Cl)cc2C(c2c(F)cccc2OC)=NC3)ccc1C(=O)O` + Cc1cncc(-c2nc(NCCc3c[nH]c4ccccc34)c3ncn(C(C)C)c3n2)c1 the IC50 (second compound 0.1 µM) was over 10000 nM, the IC50 (second compound 0.316 µM) was over 10000 nM and the IC50 (second compound 1 µM) was over 10000 nM. The IC50 (second compound 3.16 µM) was over 10000 nM, the IC50 (second compound 10 µM) was under 31.6 nM and the viability, T/C (second compound 0.1 µM, first compound 0.0316 µM) was 80.3%. For the same molecule, the viability, T/C (second compound 0.1 µM, first compound 0.1 µM) was 77.1%, the viability, T/C (second compound 0.1 µM, first compound 0.316 µM) was 73.4% and the viability, T/C (second compound 0.1 µM, first compound 1 µM) was 56.5%. The viability, T/C (second compound 0.1 µM, first compound 3.16 µM) was 56.1%, the viability, T/C (second compound 0.1 µM, first compound 10 µM) was 57.1% and the viability, T/C (second compound 0.316 µM, first compound 0.0316 µM) was 76.2%. It also gave a viability, T/C (second compound 0.316 µM, first compound 0.1 µM) of 81%, a viability, T/C (second compound 0.316 µM, first compound 0.316 µM) of 72.4% and a viability, T/C (second compound 0.316 µM, first compound 1 µM) of 59.8%. For the same molecule, the viability, T/C (second compound 0.316 µM, first compound 3.16 µM) was 55.9%, the viability, T/C (second compound 0.316 µM, first compound 10 µM) was 54.8% and the viability, T/C (second compound 1 µM, first compound 0.0316 µM) was 95.5%. For the same molecule, the viability, T/C (second compound 1 µM, first compound 0.1 µM) was 85.3%, the viability, T/C (second compound 1 µM, first compound 0.316 µM) was 79.5% and the viability, T/C (second compound 1 µM, first compound 1 µM) was 69%. For the same molecule, the viability, T/C (second compound 1 µM, first compound 3.16 µM) was 59.7%, the viability, T/C (second compound 1 µM, first compound 10 µM) was 55.5% and the viability, T/C (second compound 3.16 µM, first compound 0.0316 µM) was 92.5%. The viability, T/C (second compound 3.16 µM, first compound 0.1 µM) was 80.9%, the viability, T/C (second compound 3.16 µM, first compound 0.316 µM) was 84.8% and the viability, T/C (second compound 3.16 µM, first compound 1 µM) was 64.6%. For the same molecule, the viability, T/C (second compound 3.16 µM, first compound 3.16 µM) was 64.2%, the viability, T/C (second compound 3.16 µM, first compound 10 µM) was 57.9% and the viability, T/C (second compound 10 µM, first compound 0.0316 µM) was 23.8%. It also gave a viability, T/C (second compound 10 µM, first compound 0.1 µM) of 21.3%, a viability, T/C (second compound 10 µM, first compound 0.316 µM) of 21.3% and a viability, T/C (second compound 10 µM, first compound 1 µM) of 16.9%. The viability, T/C (second compound 10 µM, first compound 3.16 µM) was 16.3% and the viability, T/C (second compound 10 µM, first compound 10 µM) was 22.3%.
